Test [1] addresses catalytic domain (JH1, amino acids 826-1132) of human JAK2 (Homo sapiens (Human), UniProt O60674). The experiment in a line: JAK2 LanthaScreen JH1 Binding Assay. To be noted: JAK2 JH1 1.5 nM, 50 nM fluorescent tracer, 2 hours at 25° C.; read-out: JH1 BIND IC50. Here is the method:
Example A. JAK2 LanthaScreen JH1 Binding Assay
(§1) JAK2 JH1 binding assay utilizes catalytic domain (JH1, amino acids 826-1132) of human JAK2 expressed as N-terminal FLAG-tagged, biotinylated protein in a baculovirus expression system (Carna Biosciences, Product #08-445-20N). The assay was conducted in black 384-well polystyrene plates in a final reaction volume of 20 μL. JAK2 JH1 (1.5 nM) was incubated with compounds (100 nL serially diluted in DMSO) in the presence of 50 nM Fluorescent JAK2-JH1 Tracer and 0.5 nM Streptavidin-Tb cryptate (Cisbio Part #610SATLB) in assay buffer (50 mM Tris, pH=7.5, 10 mM MgCl2, 0.01% Brij-35, 0.1% BSA, 1 mM EGTA, 5% Glycerol and 5 mM DTT). Non-specific binding was accessed in the presence of 2 mM ATP. After incubation for 2 hours at 25° C., LanthaScreen signals were read on a PHERAstar FS plate reader (BMG LABTECH). Data was analyzed with IDBS XLfit and GraphPad Prism 5.0 software using a four parameter dose response curve to determine IC50 for each compound.
A general note: TR-FRET usually uses a lanthanide donor and a delayed reading to cut background.

Test [2] deals with pseudo-kinase domain (JH2, amino-acids 536-812) of human Wild Type JAK2 (Homo sapiens (Human), UniProt O60674, F794H/W659A/W777A). The experiment in a line: JAK2 LanthaScreen JH2-WT Binding Assay. The settings on record: JAK2 JH2-WT 0.145 nM, 50 nM fluorescent tracer, 1 hour at 25° C.; read-out: JH2 BIND WT IC50. The method, then: Example B. JAK2 LanthaScreen JH2-WT Binding Assay
Chain of pseudo-kinase domain (JH2, amino-acids 536-812) of human Wild Type JAK2 (O60674 536-812 W659A/W777A/F794H): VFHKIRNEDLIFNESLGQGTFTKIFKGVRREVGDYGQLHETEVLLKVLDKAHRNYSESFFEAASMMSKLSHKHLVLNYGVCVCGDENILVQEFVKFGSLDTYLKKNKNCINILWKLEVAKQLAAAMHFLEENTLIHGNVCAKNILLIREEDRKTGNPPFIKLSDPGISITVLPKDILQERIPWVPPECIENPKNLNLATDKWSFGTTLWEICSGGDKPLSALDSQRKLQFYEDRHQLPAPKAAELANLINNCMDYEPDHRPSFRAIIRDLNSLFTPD
as §1, with “The” for “JAK2 JH1 binding assay utilizes catalytic domain (JH1, amino acids 826-1132) of human JAK2 expressed as N-terminal FLAG-tagged, biotinylated protein in a baculovirus expression system (Carna Biosciences, Product #08-445-20N). The”, “JH2-WT (0.145” for “JH1 (1.5”, “JAK2-JH2” for “JAK2-JH1”, “Tracer (MedChem Express Catalog #HY-102055)” for “Tracer”, “0.25” for “0.5”, “1 hour” for “2 hours”

Test [3] addresses pseudo-kinase domain (JH2, amino-acids 536-812) of human V617F mutant JAK2 (Homo sapiens (Human), UniProt O60674, F794H/V617F/W659A/W777A). The experiment in a line: JAK2 LanthaScreen JH2-V617F Binding Assay. The settings on record: JAK2 JH2-V617F 0.26 nM, 50 nM fluorescent tracer, 1 hour at 25° C.; read-out: JH2 BIND V617F IC50. Here is the method:
The assay was conducted in black 384-well polystyrene plates in a final reaction volume of 20 μL. […] Non-specific binding was accessed in the presence of 2 mM ATP. After incubation for 1 hour at 25° C., LanthaScreen signals were read on a PHERAstar FS plate reader (BMG LABTECH). Data was analyzed with IDBS XLfit and GraphPad Prism 5.0 software using a four parameter dose response curve to determine IC50 for each compound.

In test [4] the target is catalytic domain (JH1, amino acids 808-1132) of human JAK2 (Homo sapiens (Human), UniProt O60674). The experiment in a line: JAK2 HTRF Enzyme Activity Assay. The test is classed as biochemical. The settings on record: JAK2 0.015 nM, ATP (30 μM or 1 mM), 60 minutes at 25° C. Here is the method:
Example D. JAK2 HTRF Enzyme Activity Assay
JAK2 enzyme activity assays utilize catalytic domain (JH1, amino acids 808-1132) of human JAK2 expressed as N-terminal His-tagged protein in a baculovirus expression system (BPS Bioscience, Catalog #40450). The assays was conducted in black 384-well polystyrene plates in a final reaction volume of 20 μL. JAK2 (0.015 nM) was incubated with compounds (100 nL serially diluted in DMSO) in the presence of ATP (30 μM or 1 mM) and 500 nM Biotin-labeled […] (SEQ ID NO.: 1) peptide (BioSource International, custom synthesis) in assay buffer (50 mM Tris, pH=7.5, 10 mM MgCl2, 0.01% Brij-35, 0.1% BSA, 1 mM EGTA, 5% Glycerol and 5 mM DTT) for 60 minutes at 25° C. The reactions were stopped by the addition of 10 μL of detection buffer (50 mM Tris, pH 7.8, 0.5 mg/mL BSA, 150 mM NaCl), supplemented with EDTA, LANCE Eu-W1024 anti-phosphotyrosine (PY20), (PerkinElmer, Catalog #AD0067) and Streptavidin SureLight APC (PerkinElmer Catalog #CR130-100), for a final concentration of 15 mM, 1.5 nM and 75 nM, respectively. HTRF signals were read after 30 minutes incubation at room temperature on a PHERAstar FS plate reader (BMG LABTECH). Data was analyzed with IDBS XLfit and GraphPad Prism 5.0 software using a four parameter dose response curve to determine IC50 for each compound.

The results in this text go back to US11661422B2, “Tricyclic urea compounds as JAK2 V617F inhibitors” (Incyte Corporation, priority 2020, dated 2023).

Each structure is given as a SMILES string. Structures can show the parent of a compound that is named as a salt.

Chain of pseudo-kinase domain (JH2, amino-acids 536-812) of human V617F mutant JAK2 (O60674 536-812 V617F/W659A/W777A/F794H): as the sequence (O60674 536-812 W659A/W777A/F794H) above, with V82F counted along it
Chain of catalytic domain (JH1, amino acids 826-1132) of human JAK2 (O60674 826-1132): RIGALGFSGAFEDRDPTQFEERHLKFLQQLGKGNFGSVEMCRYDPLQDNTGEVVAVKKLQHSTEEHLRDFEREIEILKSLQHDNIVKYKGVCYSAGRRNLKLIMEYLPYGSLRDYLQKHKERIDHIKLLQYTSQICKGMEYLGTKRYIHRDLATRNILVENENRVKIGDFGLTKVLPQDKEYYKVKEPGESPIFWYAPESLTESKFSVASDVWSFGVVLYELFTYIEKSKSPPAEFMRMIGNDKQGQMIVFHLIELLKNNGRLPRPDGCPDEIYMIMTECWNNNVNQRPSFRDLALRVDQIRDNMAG
Chain of catalytic domain (JH1, amino acids 808-1132) of human JAK2 (O60674 808-1132): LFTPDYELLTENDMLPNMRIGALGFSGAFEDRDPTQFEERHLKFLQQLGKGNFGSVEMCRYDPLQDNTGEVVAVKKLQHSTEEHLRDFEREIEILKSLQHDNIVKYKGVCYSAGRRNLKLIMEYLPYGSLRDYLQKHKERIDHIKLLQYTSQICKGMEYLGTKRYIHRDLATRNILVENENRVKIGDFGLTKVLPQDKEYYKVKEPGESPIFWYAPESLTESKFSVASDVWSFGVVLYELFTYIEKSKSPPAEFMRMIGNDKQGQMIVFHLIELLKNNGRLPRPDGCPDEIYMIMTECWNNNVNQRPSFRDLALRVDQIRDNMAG

With `CN1C(=O)N(c2ccc(C(=O)O)cc2)Cc2c1cnc1[nH]c(-c3ccc(CN4CCC(S(C)(=O)=O)CC4)cc3)c(C#N)c21` [Example 24, 4-(9-Cyano-4-methyl-8-(4-((4-(methylsulfonyl)piperidin-1-yl)methyl)phenyl)-3-oxo-1,3,4,7-tetrahydro-2H-pyrrolo[3′,2′:5,6]pyrido[3,4-d]pyrimidin-2-yl)benzoic acid Trifluoroacetic Acid Salt], the IC50 (commonly the midpoint of a concentration-inhibition curve) was above 2500 nM in test [1], 100 to 500 nM in test [2], 100 to 500 nM in test [3] and above 2500 nM in test [4].

As to `CN1C(=O)N(c2ccc(C(=O)O)cc2)Cc2c1cnc1[nH]c(-c3ccc(CN4CCC(S(C)(=O)=O)CC4)cc3)c(I)c21` [Example 25, 4-(9-Iodo-4-methyl-8-(4-((4-(methylsulfonyl)piperidin-1-yl)methyl)phenyl)-3-oxo-1,3,4,7-tetrahydro-2H-pyrrolo[3′,2′:5,6]pyrido[3,4-d]pyrimidin-2-yl)benzoic acid Trifluoroacetic Acid Salt], the IC50 in test [1] is 500 to 1000 nM; in test [2] it was at most 100 nM; in test [3] it was at most 100 nM; in test [4] it was 1000 to 2500 nM.

As for `COc1ccc(-c2c(C3CC3)[nH]c3ncc4c(c23)CN(c2ccc(C(=O)O)cc2)C(=O)N4C)cc1` [Example 26, 4-(8-Cyclopropyl-9-(4-methoxyphenyl)-4-methyl-3-oxo-1,3,4,7-tetrahydro-2H-pyrrolo[3′,2′:5,6]pyrido[3,4-d]pyrimidin-2-yl)benzoic acid], the IC50 is above 2500 nM in test [1], 100 to 500 nM in test [2], 100 to 500 nM in test [3] and above 2500 nM in test [4].
